PMC8785688 (Bioorganic & medicinal chemistry, 2021)
Each block holds one molecule with its values, some of them ahead of it.

Legend:
[1] = target: T1, h15-LOX-2 (Homo sapiens, UniProt O15296); experiment: Lipoxygenase UV-Vis-based IC50 assay, h15-LOX-2; format: biochemical
T1 sequence (O15296 1-676): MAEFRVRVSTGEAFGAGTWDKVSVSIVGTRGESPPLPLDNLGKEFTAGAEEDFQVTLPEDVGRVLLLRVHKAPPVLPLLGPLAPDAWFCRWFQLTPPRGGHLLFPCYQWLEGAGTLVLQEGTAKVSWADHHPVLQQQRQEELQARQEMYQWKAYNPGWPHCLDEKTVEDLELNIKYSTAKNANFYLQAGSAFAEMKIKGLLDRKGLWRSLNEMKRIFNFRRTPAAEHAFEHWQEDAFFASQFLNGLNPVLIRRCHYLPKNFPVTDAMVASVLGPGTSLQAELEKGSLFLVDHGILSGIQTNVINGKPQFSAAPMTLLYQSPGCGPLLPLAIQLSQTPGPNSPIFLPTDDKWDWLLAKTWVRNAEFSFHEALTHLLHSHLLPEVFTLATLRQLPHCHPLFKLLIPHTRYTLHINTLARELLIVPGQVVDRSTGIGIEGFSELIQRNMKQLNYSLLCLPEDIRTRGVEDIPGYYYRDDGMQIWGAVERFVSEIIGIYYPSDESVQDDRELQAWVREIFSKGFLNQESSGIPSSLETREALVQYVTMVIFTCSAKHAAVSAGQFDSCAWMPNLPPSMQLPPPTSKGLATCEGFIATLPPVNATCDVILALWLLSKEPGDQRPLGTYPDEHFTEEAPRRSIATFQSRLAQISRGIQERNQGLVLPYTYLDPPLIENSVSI

[2] = target: T1, h15-LOX-2; experiment: Hydrogen/deuterium exchange mass spectrometry of h15-LOX-2; conditions: 20 μM inhibitor; peptides 173-184 and 184-191 (helix α2); short time scales (< 10 min)
[3] = target: T1, h15-LOX-2; experiment: Steady-state inhibition kinetics of h15-LOX-2; format: biochemical; conditions: for mode of inhibition: against h15-LOX-2
[4] = target: T1, h15-LOX-2; experiment: Study of inhibitors as substrates of h15-LOX-2; format: biochemical; conditions: 20 μM inhibitor, absence of AA; UV-Vis and RP-HPLC
[5] = target: the molecule itself; experiment: SEC

Molecule: FC(F)(F)c1ccc(CSc2nccn2-c2ccccc2)cc1 [Inhibitor 327069]
enhanced inhibition of 327069 over 536924 ([1]; ratio of IC50 values): ~10 fold
change in H/D exchange vs h15-LOX-2 alone [2]: ≤ 20%
Ki [3]: 1200 nM
mode of inhibition [3]: mixed-type
substrate activity with h15-LOX-2 [4]: not substrates

B1: loop mutant (LM) of human epithelial 15-lipoxygenase-2, Mn2+-substituted (enzyme, UniProt O15296 1-676, looked up)
chain: MAEFRVRVSTGEAFGAGTWDKVSVSIVGTRGESPPLPLDNLGKEFTAGAEEDFQVTLPEDVGRVLLLRVHKAGPLAPDAWFCRWFQLTPPRGGHLLFPCYQWLEGAGTLVLQEGTAKVSWADHHPVLQQQRQEELQARQEMYQWKAYNPGWPHCLDEKTVEDLELNIKYSTAKNANFYLQAGSAFAEMKIKGLLDRKGLWRSLNEMKRIFNFRRTPAAEHAFEHWQEDAFFASQFLNGLNPVLIRRCHYLPKNFPVTDAMVASVLGPGTSLQAELEKGSLFLVDHGILSGIQTNVINGKPQFSAAPMTLLYQSPGCGPLLPLAIQLSQTPGPNSPIFLPTDDKWDWLLAKTWVRNAEFSFHEALTHLLHSHLLPEVFTLATLRQLPHCHPLFKLLIPHTRYTLHINTLARELLIVPGQVVDRSTGIGIEGFSELIQRNMKQLNYSLLCLPEDIRTRGVEDIPGYYYRDDGMQIWGAVERFVSEIIGIYYPSDESVQDDRELQAWVREIFSKGFLNQESSGIPSSLETREALVQYVTMVIFTCSAKHAAVSAGQFDSCAWMPNLPPSMQLPPPTSKGLATCEGFIATLPPVNATCDVILALWLLSKEPGDQRPLGTYPDEHFTEEAPRRSIATFQSRLAQISRGIQERNQGLVLPYTYLDPPLIENSVSI
stoichiometry N [5]: 2

The remaining lines, values ahead:

mode of inhibition [3]: mixed-type
substrate activity with h15-LOX-2 [4]: not substrates
Molecule: CCc1ccc(CSc2nccn2-c2ccccc2)cc1 [Inhibitor 327206]

IC50 [1]: > 100000 nM
Molecule: Fc1ccc(CSc2nccn2-c2ccccc2)cc1 [analog 2, 2-((4-fluorobenzyl)thio)-1-phenyl-1H-imidazole]
